Results as given in PMC2361651 (British Journal of Cancer, 2005).

How the values were obtained:
[1] = tested on: tumour vascular permeability; assay: DCE-MRI of tumour vascular permeability; format: in vivo, human; settings: for increase in leakage space (Ve): final scan (median 35 days), soft-tissue sarcoma patient
Experimental: All patients were asked to have a baseline DCE-MRI examination within the 7 days prior to receiving the study compound under study conditions as described above. Follow-up scans were performed on day 1 and then after 4 weeks of therapy. After the first three patients' examination, the protocol was amended to day 1, 2 weeks, 6 weeks and 6 weekly thereafter if the patient remained on study. All examinations were performed on a 1.5 T MRI system (Vision, Siemens Medical Systems, Erlangen, Germany) approximately 4 h after the commencement of the treatment infusion.
The image collection protocol comprised routine orthogonal T1- and T2-weighted images taken through the previously identified target lesion, to allow localisation and bi-dimensional tumour measurement. The dynamic imaging used a five-slice saturation recovery turbo fast low-angle shot sequence (SRTF) taken through the centre of the target lesion. Proton density-weighted images were acquired, followed by a series of T1-weighted images employing the same gain and image scaling factors. The sequential T1-weighted images were acquired every 9 s for 6.3 min (42 time points).
Gadopentetate dimeglumine (Magnevist Schering Health Care Limited, Burgess Hill, Sussex, UK) was injected intravenously using a mechanical power injector, through a peripherally placed cannula. This contrast was administered as a bolus after the third baseline data point was acquired at a dose of 0.1 mmol kg^−1 body weight. The use of the mechanical power injector allowed the contrast to be delivered within 10 s. The contrast injection was followed by a 20 ml flush of normal saline.
Using the resultant scanned images, two trained observers (AP, CH) blinded to the clinical outcome of the patients evaluated the patterns of enhancement within a designated region of interest. Contrast medium kinetic parameters were then derived for each pixel using MR Imaging Workbench software®. Quantitative and semiquantitative statistical analysis was then performed on these parameters using StatsDirect software (Research Solutions, Cambridge, UK).

[2] = Phase I safety and tolerability, twice weekly intravenous infusion
[3] = mid-treatment (2 weeks), one patient, squamous cell carcinoma nasopharynx, 110 mg m^−2

Cc1cc(C)c(/C=C2\C(=O)Nc3ccccc32)[nH]1 [SU5416, Z-3-[(2,4-dimethylpyrrol-5-yl)methylidenyl]-2-indolinone]
increase in leakage space (Ve) ([1]; 48 mg m^−2): 36.5%
increase in leakage space (Ve) ([1]; final expansion cohort): 34.5%
change in Ktrans ([1]; increase, day 1, one patient with metastatic melanoma (target lesion brain)): 91%
change in Ktrans [1, 3]: −51.9%
change in Ve [1, 3]: −48.6%
pain or burning discomfort in tumour-related sites shortly after infusion, patients ([2]; dose expansion cohort): three
dysphonia, patients ([2]; therapy for 6 weeks or more, reversible over several months): Two
Venous thrombotic events, patients ([2]; thrombosis of the inferior vena cava and a pulmonary embolism, differing dose levels): two
recommended dose for future study ([2]; twice weekly intravenous infusion): 145 mg m^−2
maximum-tolerated dose ([2]; twice weekly intravenous infusion, 48 to 190 mg m^−2): not identified
